Test: Log P by HPLC on reversed phase columns (EEC directive 79/831 Annex V.A8)
Format: physicochemical
Details: method [a]
Outline: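 Reversed-phase HPLC per EEC 79/831 Annex V.A8, LC-UV with 10→95% acetonitrile linear gradient; eluent [a] 0.1% formic acid (acidic), [b] 0.001 M ammonium acetate (neutral), [c] 0.1% phosphoric acid (acidic). Calibrated with C3–C16 straight-chain alkan-2-ones, linear interpolation of retention times; multiple values joined by "+".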

CC(C)(C)OC(=O)C1(NC(=O)c2sc(Cl)c(Cl)c2Br)CC(F)(F)C1 [1.0614]
LogP: 4.83^[a]

O=C(NC(C(=O)OCc1ccccc1)C1CC1)c1sc(Br)c(Br)c1Cl (stereo not shown) [1.0615]
LogP: 5.07^[a]

CC(C)OC(=O)C1(NC(=O)c2sc(Br)c(Br)c2Cl)CCC1 [1.0616]
LogP: 4.71^[a]

O=C(NC(C(=O)OCc1ccccc1)C1CC1)c1sc(Cl)c(Cl)c1Br (stereo not shown) [1.0617]
LogP: 5.10^[a]

COC(=O)C1(NC(=O)c2sc(Br)c(Br)c2Cl)CC(C)(C)C1 [1.0618]
LogP: 4.52^[a]

O=C(NC(C(=O)OCc1ccccc1)C1CC1)c1sc(Br)c(Br)c1F (stereo not shown) [1.0619]
LogP: 4.63^[a]

CC(C)OC(=O)C1(NC(=O)c2sc(Br)c(Br)c2F)CCC1 [1.0620]
LogP: 4.23^[a]

COC(=O)C1(NC(=O)c2sc(Br)c(Br)c2F)CC(C)(C)C1 [1.0621]
LogP: 4.12^[a]

COC(=O)C1(NC(=O)c2sc(Br)c(Br)c2F)CC(F)(F)C1 [1.0622]
LogP: 3.37^[a]

CC(C)(C)OC(=O)C1(NC(=O)c2sc(Br)c(Br)c2F)CC(F)(F)C1 [1.0623]
LogP: 4.46^[a]

COC(=O)C1(NC(=O)c2sc(Br)c(Br)c2Cl)CC(F)(F)C1 [1.0624]
LogP: 3.69^[a]

CCCOC(=O)C1(NC(=O)c2sc(Cl)c(Br)c2C)CC1 [1.0625]
LogP: 3.62^[a]

NC(=O)CNC(=O)c1sc(Cl)c(Cl)c1Br [1.0626]
LogP: 1.98^[a]

COC(=O)C(C)(C)NC(=O)c1sc(Br)c(C(F)F)c1Br [1.0627]
LogP: 3.22^[a]

CCOC(=O)C(Cc1ccccc1)NC(=O)c1sc(Cl)c(Br)c1C#N (stereo not shown) [1.0628]
LogP: 4.00^[a]

COC(=O)C1(NC(=O)c2sc(Cl)c(Br)c2C#N)CCC1 [1.0629]
LogP: 2.82^[a]

CCOC(=O)C1(NC(=O)c2sc(Cl)c(Br)c2C#N)CCC1 [1.0630]
LogP: 3.20^[a]

CCCOC(=O)C1(NC(=O)c2sc(Cl)c(Br)c2C#N)CC1 [1.0631]
LogP: 3.06^[a]

N#Cc1c(C(=O)NC2(C(=O)OC3CCC3)CC2)sc(Cl)c1Br [1.0632]
LogP: 3.21^[a]

N#CCNC(=O)c1sc(Cl)c(Br)c1C#N [1.0633]
LogP: 2.07^[a]

CCOC(=O)CNC(=O)c1sc(Cl)c(Br)c1F [1.0634]
LogP: 2.88^[a]

COC(=O)CNC(=O)c1sc(Cl)c(Br)c1F [1.0635]
LogP: 2.49^[a]

CCOC(=O)C1(NC(=O)c2sc(Cl)c(Br)c2F)CC1 [1.0636]
LogP: 3.10^[a]

COC(=O)C(C)(C)NC(=O)c1sc(Cl)c(Br)c1F [1.0637]
LogP: 3.27^[a]

NC(=O)CNC(=O)c1sc(Br)c(Br)c1Cl [1.0638]
LogP: 1.98^[a]

CCOC(=O)C(NC(=O)c1sc(Cl)c(Br)c1F)C(C)C (stereo not shown) [1.0639]
LogP: 4.40^[a]

CCOC(=O)C(Cc1ccccc1)NC(=O)c1sc(Cl)c(Br)c1F (stereo not shown) [1.0640]
LogP: 4.50^[a]

COC(=O)C1(NC(=O)c2sc(Cl)c(Br)c2F)CCC1 [1.0641]
LogP: 3.29^[a]

CCOC(=O)C1(NC(=O)c2sc(Cl)c(Br)c2F)CCC1 [1.0642]
LogP: 3.75^[a]

CCCOC(=O)C1(NC(=O)c2sc(Cl)c(Br)c2F)CC1 [1.0643]
LogP: 3.52^[a]

O=C(NC1(C(=O)OC2CCC2)CC1)c1sc(Cl)c(Br)c1F [1.0644]
LogP: 3.69^[a]

N#CCNC(=O)c1sc(Cl)c(Br)c1F [1.0645]
LogP: 2.36^[a]

CCOC(=O)CNC(=O)c1sc(Br)c(C(F)F)c1Br [1.0646]
LogP: 2.92^[a]

COC(=O)CNC(=O)c1sc(Br)c(C(F)F)c1Br [1.0647]
LogP: 2.56^[a]

CCOC(=O)C1(NC(=O)c2sc(Br)c(C(F)F)c2Br)CC1 [1.0648]
LogP: 3.05^[a]

COC(=O)C1(NC(=O)c2sc(Br)c(C(F)F)c2Br)CC1 [1.0649]
LogP: 2.70^[a]

COC(=O)C(NC(=O)c1sc(Cl)c(Br)c1F)C1CC1 (stereo not shown) [1.0650]
LogP: 3.41^[a]

Cc1c(C(=O)NC2(C(=O)OC3CCC3)CC2)sc(Br)c1Cl [1.0651]
LogP: 3.78^[a]

N#CCNC(=O)c1sc(Br)c(C#N)c1Cl [1.0652]
LogP: 2.03^[a]

CCOC(=O)CNC(=O)c1sc(Cl)c(C#N)c1Br [1.0653]
LogP: 2.58^[a]

Reference: patent publication US12642270B2, “Substituted thiophene carboxamides, thiophene carboxylic acids and derivatives thereof” (Bayer Aktiengesellschaft, priority 2019, dated 2026)
